Measurements: EP4745134A1 (Jiangsu Yahong Meditech Co., Ltd., priority 2023, dated 2025)
Values belong to the compound of their own block, whether it stands above or below them.

How the values were obtained:
[1] = target: PRMT5-MTA (Homo sapiens, UniProt O14744); experiment: Enzymatic inhibitory activity against PRMT5-MTA (AlphaScreen); format: biochemical; details: read-out: IC50
Procedure, shortened: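 PRMT5/[…] (1 nM) was preincubated for 30 min at room temperature with 1 µM […] and 2.5 µM SAM, then exposed to compound (10-point, 3-fold from 1000 nM) for 15 min at 23 °C. Histone H4 substrate (5 nM) was added and reacted for 45 min at 23 °C. Symmetric dimethyl-R3 H4 was detected by AlphaScreen and IC50 calculated.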

[2] = system: HCT116 MTAP KO cells; experiment: Inhibitory activity against cell proliferation (CellTiter Glo, 6 days), HCT116 MTAP KO; format: cell-based; details: for IC50: Homo sapiens, HCT-116, 144 h, HCT116 MTAP KO cells, 6 days, CellTiter Glo, read-out: HCT116 MTAP KO IC50; for Selectivity HCT 116-WT/ HCT116 MTAP KO: ratio of IC50 HCT116-WT / HCT116 MTAP KO
Procedure, shortened: (§1)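 Following overnight attachment of 250 cells per well in McCoy's 5A medium with 10% FBS, compounds spanning 8 concentrations (4-fold, top 10000 nM) were applied for 6 days. Growth inhibition IC50 was derived from luminescent ATP signal.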

[3] = system: HCT116-WT cells; experiment: Inhibitory activity against cell proliferation (CellTiter Glo, 6 days), HCT116-WT; format: cell-based; details: 144 h, HCT116-WT cells, 6 days, CellTiter Glo; read-out: HCT116-WT IC50
Procedure, shortened: as §1

PRMT5-MTA, sequence (O14744 whole entry): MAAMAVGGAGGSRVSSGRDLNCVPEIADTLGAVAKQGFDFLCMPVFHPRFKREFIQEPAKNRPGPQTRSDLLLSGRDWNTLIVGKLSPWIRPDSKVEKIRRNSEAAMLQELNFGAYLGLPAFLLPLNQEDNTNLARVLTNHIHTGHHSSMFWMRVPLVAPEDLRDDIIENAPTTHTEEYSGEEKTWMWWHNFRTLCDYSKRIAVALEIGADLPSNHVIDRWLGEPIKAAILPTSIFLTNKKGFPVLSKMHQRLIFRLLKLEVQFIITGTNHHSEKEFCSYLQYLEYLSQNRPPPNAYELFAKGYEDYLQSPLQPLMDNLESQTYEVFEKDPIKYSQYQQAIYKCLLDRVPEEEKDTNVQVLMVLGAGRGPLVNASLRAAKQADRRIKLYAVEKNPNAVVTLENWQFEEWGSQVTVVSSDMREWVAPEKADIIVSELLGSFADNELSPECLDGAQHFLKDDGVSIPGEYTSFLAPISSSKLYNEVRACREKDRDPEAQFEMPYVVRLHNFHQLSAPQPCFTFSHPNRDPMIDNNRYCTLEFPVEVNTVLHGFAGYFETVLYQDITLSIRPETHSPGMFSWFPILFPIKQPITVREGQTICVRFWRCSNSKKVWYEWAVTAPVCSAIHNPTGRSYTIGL
PRMT5-MTA, sequence (Q9BQA1 whole entry partner): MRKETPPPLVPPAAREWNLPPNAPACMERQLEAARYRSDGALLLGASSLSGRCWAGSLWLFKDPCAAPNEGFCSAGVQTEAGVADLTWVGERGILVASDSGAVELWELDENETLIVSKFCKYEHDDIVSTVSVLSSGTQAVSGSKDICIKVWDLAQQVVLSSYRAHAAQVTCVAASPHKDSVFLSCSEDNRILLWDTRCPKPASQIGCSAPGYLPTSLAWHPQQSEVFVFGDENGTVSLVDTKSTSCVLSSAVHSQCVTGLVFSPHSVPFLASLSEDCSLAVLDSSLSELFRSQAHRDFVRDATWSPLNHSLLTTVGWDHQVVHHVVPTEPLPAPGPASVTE

SMILES: CN(c1ncccn1)N(Cc1ccc(C(F)(F)F)cn1)C(=O)c1ccc2nc(N)c3cnccc3c2c1 [Example 308, 5-amino-N'-methyl-N'-(pyrimidin-2-yl)-N-((5-(trifluoromethyl)pyridin-2-yl)methyl)ben zo[c][2,7]naphthyridine-9-carbohydrazide]
IC50 [1]: 1.1 nM
IC50 [2]: 11 nM
Selectivity HCT 116-WT/ HCT116 MTAP KO [2]: 19.64
IC50 [3]: 216 nM

SMILES: [2H]C([2H])([2H])c1cc2cc(C(=O)N(Cc3ccc(C(F)(F)F)cn3)N(C)c3ncccn3)ccc2nc1N [Example 310, 2-amino-N'-methyl-3-(methyl-d3)-N'-(pyrimidin-2-yl)-N-((5-(trifluoromethyl)pyridin-2-yl)methyl)quinoline-6-carbohydrazide]
IC50 [1]: 1.8 nM
IC50 [2]: 33 nM
Selectivity HCT 116-WT/ HCT116 MTAP KO [2]: 34.09
IC50 [3]: 1120 nM

SMILES: [2H]C([2H])([2H])c1cc2cc(C(=O)N(Cc3ccc(C(F)(F)F)cn3)N(c3ncccn3)C([2H])([2H])[2H])ccc2nc1N [Example 311, 2-amino-N',3-bis(methyl-D3)-N'-(pyrimidin-2-yl)-N-((5-(trifluoromethyl)pyridin-2-yl)methyl)quinoline-6-carbohydrazide]
IC50 [1]: 3 nM
IC50 [2]: 59 nM
Selectivity HCT 116-WT/ HCT116 MTAP KO [2]: 29.78
IC50 [3]: 1760 nM

SMILES: [2H]C([2H])([2H])c1cc2cc(C(=O)N(Cc3ccc(C(F)(F)F)cn3)N(C)c3nccc4nccnc34)ccc2nc1N [Example 313, 2-amino-N'-methyl-3-(methyl-d3)-N'-(pyrido[3,4-b]pyrazin-5-yl)-N-((5-(trifluoromethyl)pyridin-2-yl)methyl)quinoline-6-c arbohydrazide]
IC50 [1]: 4.2 nM
IC50 [2]: 38 nM
Selectivity HCT 116-WT/ HCT116 MTAP KO [2]: 13.37
IC50 [3]: 508 nM

SMILES: [2H]C([2H])([2H])c1cc2cc(C(=O)N(Cc3ccc(C(F)(F)F)cn3)N(c3ncccn3)C3CC3)ccc2nc1N [Example 314, 2-amino-N'-cyclopropyl-3-(methyl-D3)-N'-(pyrimidin-2-yl)-N-((5-(trifluoromethyl)pyridin-2-yl)methyl)quinoline-6-carbo hydrazide]
IC50 [1]: 4.7 nM
IC50 [2]: 12 nM
Selectivity HCT 116-WT/ HCT116 MTAP KO [2]: 23.58
IC50 [3]: 283 nM

SMILES: [2H]C([2H])([2H])c1cc2cc(C(=O)N(Cc3ccc(-c4scnc4C)cn3)N(c3ncccn3)C3CC3)ccc2nc1N [Example 316, 2-amino-N'-cyclopropyl-3-(methyl-D3)-N-((5-(4-methylthiazol-5-yl)pyridin-2-yl)methyl)-N'-(pyrimidin-2-yl)quinoline-6-c arbohydrazide]
IC50 [1]: 6.8 nM
IC50 [2]: 11 nM
Selectivity HCT 116-WT/ HCT116 MTAP KO [2]: 19.55
IC50 [3]: 215 nM

SMILES: [2H]C([2H])([2H])c1cc2cc(C(=O)N(Cc3ccc(-c4sc(C)nc4C)cn3)N(c3ncccn3)C3CC3)ccc2nc1N [Example 317, 2-amino-N'-cyclopropyl-N-((5-(2,4-dimethylthiazol-5-yl)pyridin-2-yl)methyl)-3-(methyl-D3)-N'-(pyrimidin-2-yl)quinoline-6-carbohydrazide]
IC50 [1]: 6.4 nM
IC50 [2]: 23 nM
Selectivity HCT 116-WT/ HCT116 MTAP KO [2]: 10.48
IC50 [3]: 241 nM

SMILES: [2H]C([2H])([2H])c1cc2cc(C(=O)N(Cc3ccc(-c4cncs4)cn3)N(C)c3ncccn3)ccc2nc1N [Example 318, 2-amino-N'-methyl-3-(methyl-D3)-N'-(pyrimidin-2-yl)-N-((5-(thiazol-5-yl)pyridin-2-yl)methyl)quinoline-6-carbohydrazide]
IC50 [1]: 6.3 nM
IC50 [2]: 16 nM
Selectivity HCT 116-WT/ HCT116 MTAP KO [2]: 21.13
IC50 [3]: 338 nM

SMILES: Nc1nc2ccc(C(=O)N(Cc3ccc(C(F)(F)F)cn3)N(c3ncccn3)C3CC3)cc2cc1CO [Example 320, 2-amino-N'-cyclopropyl-3-(hydroxymethyl)-N'-(pyrimidin-2-yl)-N-((5-(trifluoromethyl)pyridin-2-yl)methyl)quinoline-6-carbohydrazide]
IC50 [1]: 5.5 nM
IC50 [2]: 102 nM
Selectivity HCT 116-WT/ HCT116 MTAP KO [2]: 24.70
IC50 [3]: 2520 nM

SMILES: CN(c1ncccn1)N(Cc1ccc(-c2cnn(C(F)(F)F)c2)cn1)C(=O)c1ccc2nc(N)c(CO)cc2c1 [Example 322, 2-amino-3-(hydroxymethyl)-N'-methyl-N '-(pyrimidin-2-yl)-N-((5-(1-(trifluoromethyl)-1H-pyrazol-4-yl)pyridin-2-yl)methyl) quinoline-6-carbohydrazide]
IC50 [1]: 4.4 nM
IC50 [2]: 268 nM
Selectivity HCT 116-WT/ HCT116 MTAP KO [2]: 16.31
IC50 [3]: 4370 nM

SMILES: CN(c1ncccn1)N(Cc1ccc(C(F)(F)F)cn1)C(=O)c1ccc2nc(N)c(CO)cc2c1 [Example 325, 2-amino-3-hydroxymethyl-N'-methyl-N'-(pyrimidin-2-yl)-N-((5-(trifluoromethyl)pyridin-2-yl)methyl)quinoline-6-carbohydrazide]
IC50 [1]: 2.3 nM
IC50 [2]: 82 nM
Selectivity HCT 116-WT/ HCT116 MTAP KO [2]: 38.72
IC50 [3]: 3180 nM

SMILES: Cc1cc2nc(N)c3cnn(C)c3c2cc1C(=O)N1CC(C)CN1c1ncccc1F (stereo not shown) [Example 328, (4-amino-1,7-dimethyl-1H-pyrazolo[4,3-c]quinolin-8-yl)(2-(3-fluoropyridin-2-yl)-4-methylpyrazolidin-1-yl)methanone]
IC50 [1]: 6.5 nM
IC50 [2]: 38 nM
Selectivity HCT 116-WT/ HCT116 MTAP KO [2]: 61.63
IC50 [3]: 2340 nM

SMILES: Cc1cc2nc(N)c3cnn(C)c3c2cc1C(=O)N1CC(C)(C)CN1c1ncccc1F [Example 330, (4-amino-1,7-dimethyl-1H-pyrazolo[4,3-c]quinolin-8-yl)(2-(3-fluoropyridin-2-yl)-4,4-dimethylpyrazolidin-1-yl)methanone]
IC50 [1]: 13 nM
IC50 [2]: 24 nM
Selectivity HCT 116-WT/ HCT116 MTAP KO [2]: 25.13
IC50 [3]: 603 nM

SMILES: Cc1cc2nc(N)c3cnn(C)c3c2cc1C(=O)N1CC(C)CN1c1cc(F)ccc1F (stereo not shown) [Example 335, (4-amino-1,7-dimethyl-1H-pyrazolo[4,3-c]quinolin-8-yl)(2-(2,5-difluorophenyl)-4-methylpyrazolidin-1-yl)methanone]
IC50 [1]: 3.3 nM
IC50 [2]: 15 nM
Selectivity HCT 116-WT/ HCT116 MTAP KO [2]: 42.93
IC50 [3]: 644 nM

SMILES: Cc1cc2nc(N)c3cnn(C)c3c2cc1C(=O)N1CCCN1c1ccc(C(F)(F)F)cn1 [Example 338, (4-amino-1,7-dimethyl-1H-pyrazolo[4,3-c]quinolin-8-yl)(2-(5-(trifluoromethyl)pyridin-2-yl)pyrazolidin-1-yl)methanone]
IC50 [1]: 2.8 nM
IC50 [2]: 153 nM
Selectivity HCT 116-WT/ HCT116 MTAP KO [2]: 24.64
IC50 [3]: 3770 nM

IC50 [1]: 4.2 nM
IC50 [2]: 295 nM
IC50 [3]: > 10000 nM
SMILES: Cn1ncc2c(N)nc3cc(F)c(C(=O)N4CCCN4c4ccc(C(F)(F)F)cn4)cc3c21 [Example 340, (4-amino-7-fluoro-1-methyl-1H-pyrazolo [4,3-c]quinolin-8-yl)(2-(5-(trifluoromethyl)pyridin-2-yl)pyrazolidin-1-yl)methanone]

SMILES: Cc1cc2nc(N)c3cnn(C)c3c2cc1C(=O)N1CCCN1c1ncccc1F [Example 342, (4-amino-1,7-dimethyl-1H-pyrazolo[4,3-c]quinolin-8-yl)(2-(3-fluoropyridin-2-yl)pyrazolidin-1-yl)methanone]
IC50 [1]: 3.8 nM
IC50 [2]: 100 nM
Selectivity HCT 116-WT/ HCT116 MTAP KO [2]: 67.95
IC50 [3]: 6800 nM
